Measurements: the NIST ThermoML archive (doi:10.1016/j.jct.2008.02.005)
Numbers after ± are expanded uncertainties.

Assay: xn = mol fraction of the nth substance listed
Conditions: 101 kPa, Liquid; for viscosity: Capillary tube (Ostwald / Ubbelohde) method; for speed of sound: Sing-around technique in a fixed-path interferometer

CCCCCCCCO [octan-1-ol] + CCCCCCCC
Conditions | mass density, 298.15 K [kg/m3] | mass density, 303.15 K [kg/m3] | mass density, 308.15 K [kg/m3] | speed of sound, 298.15 K [m/s] | speed of sound, 303.15 K [m/s] | speed of sound, 308.15 K [m/s] | viscosity, 298.15 K [mPa·s]
x1 = 0.0548 | 705.04 ± 0.76 | 700.957 ± 0.76 | 696.852 ± 0.77 | 1177.6 ± 0.8 | 1156.9 ± 0.8 | 1136.7 ± 0.8 | 0.554 ± 0.007
x1 = 0.1078 | 711.299 ± 0.74 | 707.298 ± 0.75 | 703.23 ± 0.76 | 1183.3 ± 0.8 | 1162.8 ± 0.8 | 1142.7 ± 0.8 | 0.621 ± 0.007
x1 = 0.1526 | 716.736 ± 0.73 | 712.733 ± 0.74 | 708.68 ± 0.75 | 1189.2 ± 0.8 | 1168.9 ± 0.8 | 1148.9 ± 0.8 | 0.679 ± 0.007
x1 = 0.2019 | 722.796 ± 0.72 | 718.79 ± 0.73 | 714.754 ± 0.74 | 1196 ± 0.8 | 1175.9 ± 0.8 | 1156.1 ± 0.8 | 0.762 ± 0.008
x1 = 0.2516 | 728.888 ± 0.71 | 724.91 ± 0.72 | 720.901 ± 0.73 | 1203.4 ± 0.8 | 1183.5 ± 0.8 | 1163.6 ± 0.8 | 0.839 ± 0.008
x1 = 0.3075 | 735.75 ± 0.7 | 731.816 ± 0.71 | 727.826 ± 0.71 | 1212.2 ± 0.8 | 1192.3 ± 0.8 | 1172.8 ± 0.8 | 0.965 ± 0.009
x1 = 0.4055 | 747.852 ± 0.68 | 743.986 ± 0.69 | 740.044 ± 0.69 | 1228 ± 0.8 | 1208.9 ± 0.8 | 1189.7 ± 0.8 | 1.222 ± 0.01
x1 = 0.5031 | 759.965 ± 0.66 | 756.131 ± 0.66 | 752.284 ± 0.67 | 1245.5 ± 0.8 | 1226.6 ± 0.8 | 1207.7 ± 0.8 | 1.569 ± 0.011
x1 = 0.602 | 772.269 ± 0.63 | 768.472 ± 0.64 | 764.683 ± 0.65 | 1263.9 ± 0.8 | 1245.2 ± 0.8 | 1227 ± 0.8 | 2.091 ± 0.014
x1 = 0.7158 | 786.456 ± 0.6 | 782.773 ± 0.61 | 779.057 ± 0.62 | 1286.9 ± 0.8 | 1268.7 ± 0.8 | 1250.9 ± 0.8 | 2.991 ± 0.019
x1 = 0.803 | 797.369 ± 0.58 | 793.787 ± 0.59 | 790.122 ± 0.6 | 1305.6 ± 0.8 | 1287.7 ± 0.8 | 1270.1 ± 0.8 | 3.986 ± 0.024
x1 = 0.8501 | 803.36 ± 0.57 | 799.76 ± 0.58 | 796.133 ± 0.58 | 1315.7 ± 0.8 | 1297.9 ± 0.8 | 1280.6 ± 0.8 | 4.652 ± 0.028
x1 = 0.8959 | 808.907 ± 0.56 | 805.579 ± 0.57 | 801.983 ± 0.57 | 1325.7 ± 0.8 | 1308.1 ± 0.8 | 1290.9 ± 0.8 | 5.399 ± 0.032
x1 = 0.9509 | 815.733 ± 0.55 | 812.572 ± 0.55 | 809.022 ± 0.56 | 1337.5 ± 0.8 | 1320.2 ± 0.8 | 1303.2 ± 0.8 | 6.441 ± 0.037
x1 = 1 | 821.813 ± 0.54 | 818.796 ± 0.54 | 815.286 ± 0.55 | 1348 ± 0.8 | 1330.8 ± 0.8 | 1314.1 ± 0.8 | 7.508 ± 0.042

CCCCCCCCO [octan-1-ol] + CCCCCC
Conditions | mass density, 298.15 K [kg/m3] | mass density, 303.15 K [kg/m3] | mass density, 308.15 K [kg/m3] | speed of sound, 298.15 K [m/s] | speed of sound, 303.15 K [m/s] | speed of sound, 308.15 K [m/s] | viscosity, 298.15 K [mPa·s]
x1 = 0.0651 | 668.557 ± 0.89 | 663.926 ± 0.89 | 659.735 ± 0.9 | 1090.1 ± 1.1 | 1068.1 ± 1.1 | 1046.3 ± 1.1 | 0.358 ± 0.007
x1 = 0.1109 | 677.728 ± 0.87 | 673.192 ± 0.87 | 668.685 ± 0.88 | 1100 ± 1.1 | 1078.1 ± 1.1 | 1056.6 ± 1.1 | 0.409 ± 0.007
x1 = 0.1511 | 685.618 ± 0.85 | 681.095 ± 0.86 | 676.641 ± 0.86 | 1109.9 ± 1.1 | 1089.3 ± 1.1 | 1066.9 ± 1.1 | 0.444 ± 0.007
x1 = 0.2052 | 695.979 ± 0.83 | 691.566 ± 0.83 | 687.129 ± 0.84 | 1123.8 ± 1.1 | 1102.7 ± 1.1 | 1081.6 ± 1.1 | 0.53 ± 0.007
x1 = 0.2699 | 708.106 ± 0.8 | 703.843 ± 0.81 | 699.426 ± 0.82 | 1142.3 ± 1.1 | 1121.4 ± 1.1 | 1099.9 ± 1 | 0.654 ± 0.008
x1 = 0.3016 | 713.929 ± 0.79 | 709.692 ± 0.8 | 705.291 ± 0.8 | 1150.4 ± 1 | 1129.8 ± 1 | 1109.3 ± 1 | 0.725 ± 0.008
x1 = 0.4013 | 731.693 ± 0.75 | 727.596 ± 0.76 | 723.487 ± 0.77 | 1178.7 ± 1 | 1158.8 ± 1 | 1138.9 ± 1 | 1.023 ± 0.009
x1 = 0.5059 | 749.508 ± 0.71 | 745.544 ± 0.72 | 741.544 ± 0.73 | 1209.1 ± 1 | 1189.6 ± 1 | 1170.3 ± 1 | 1.477 ± 0.012
x1 = 0.6014 | 765.032 ± 0.67 | 761.168 ± 0.68 | 757.276 ± 0.69 | 1237 ± 1 | 1218.1 ± 1 | 1199.2 ± 0.9 | 2.057 ± 0.015
x1 = 0.7083 | 781.504 ± 0.63 | 777.748 ± 0.64 | 773.973 ± 0.65 | 1268.1 ± 0.9 | 1249.8 ± 0.9 | 1231.4 ± 0.9 | 2.954 ± 0.019
x1 = 0.7967 | 794.381 ± 0.6 | 790.775 ± 0.61 | 787.028 ± 0.62 | 1293.2 ± 0.9 | 1275.3 ± 0.9 | 1257.6 ± 0.9 | 3.977 ± 0.025
x1 = 0.8463 | 801.415 ± 0.59 | 797.955 ± 0.59 | 794.319 ± 0.6 | 1307.2 ± 0.9 | 1289.7 ± 0.9 | 1272.1 ± 0.9 | 4.666 ± 0.029
x1 = 0.9154 | 810.757 ± 0.56 | 807.483 ± 0.57 | 803.632 ± 0.58 | 1326.1 ± 0.9 | 1308.4 ± 0.9 | 1291.3 ± 0.9 | 5.802 ± 0.034
x1 = 0.9401 | 814.039 ± 0.56 | 810.851 ± 0.56 | 807.169 ± 0.57 | 1332.7 ± 0.9 | 1315.5 ± 0.9 | 1298.5 ± 0.8 | 6.264 ± 0.036
x1 = 1 | 821.813 ± 0.54 | 818.796 ± 0.54 | 815.286 ± 0.55 | 1348 ± 0.8 | 1330.8 ± 0.8 | 1314.1 ± 0.8 | 7.508 ± 0.042
